Columns and labels:
[1] = system: recombinant guanylate cyclase reporter cell line (CHO); assay: Effect on a recombinant guanylate cyclase reporter cell line (sGC-activating activity in the CHO reporter cell); type: cell-based
Description: B-1. Effect on a Recombinant Guanylate Cyclase Reporter Cell Line
The cellular activity of the compounds according to the invention is determined using a recombinant guanylate cyclase reporter cell line, as described in F. Wunder et al., Anal. Biochem. 339, 104-112 (2005).

[2] = molecular target: T1, soluble guanylate cyclase (sGC) (Rattus norvegicus, UniProt P20595); assay: Stimulation of sGC enzyme activity (PPi detection, luciferase); type: biochemical; details: for EC50: sGC enzyme in vitro, read-out: EC50 (half-maximal effective concentration), activating action at the sGC enzyme in vitro
T1 construct: made in house
T1 sequence (P20595 1-619): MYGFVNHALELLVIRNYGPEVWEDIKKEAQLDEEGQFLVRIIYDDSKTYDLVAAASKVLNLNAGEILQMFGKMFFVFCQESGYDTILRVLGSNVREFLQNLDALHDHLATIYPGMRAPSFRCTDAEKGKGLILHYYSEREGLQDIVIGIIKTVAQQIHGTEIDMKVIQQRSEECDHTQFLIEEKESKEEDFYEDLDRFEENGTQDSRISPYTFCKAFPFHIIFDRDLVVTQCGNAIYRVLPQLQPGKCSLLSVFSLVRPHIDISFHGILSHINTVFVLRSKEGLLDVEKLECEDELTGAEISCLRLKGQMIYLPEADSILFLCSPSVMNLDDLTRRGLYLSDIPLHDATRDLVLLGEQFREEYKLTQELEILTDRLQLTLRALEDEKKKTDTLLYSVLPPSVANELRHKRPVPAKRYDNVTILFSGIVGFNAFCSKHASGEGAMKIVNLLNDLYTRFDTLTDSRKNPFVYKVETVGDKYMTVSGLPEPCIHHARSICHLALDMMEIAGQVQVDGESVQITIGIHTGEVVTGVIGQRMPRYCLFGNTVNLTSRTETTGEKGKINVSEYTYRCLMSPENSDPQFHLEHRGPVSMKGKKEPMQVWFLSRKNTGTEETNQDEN
T1 sequence (P19686 1-690 partner): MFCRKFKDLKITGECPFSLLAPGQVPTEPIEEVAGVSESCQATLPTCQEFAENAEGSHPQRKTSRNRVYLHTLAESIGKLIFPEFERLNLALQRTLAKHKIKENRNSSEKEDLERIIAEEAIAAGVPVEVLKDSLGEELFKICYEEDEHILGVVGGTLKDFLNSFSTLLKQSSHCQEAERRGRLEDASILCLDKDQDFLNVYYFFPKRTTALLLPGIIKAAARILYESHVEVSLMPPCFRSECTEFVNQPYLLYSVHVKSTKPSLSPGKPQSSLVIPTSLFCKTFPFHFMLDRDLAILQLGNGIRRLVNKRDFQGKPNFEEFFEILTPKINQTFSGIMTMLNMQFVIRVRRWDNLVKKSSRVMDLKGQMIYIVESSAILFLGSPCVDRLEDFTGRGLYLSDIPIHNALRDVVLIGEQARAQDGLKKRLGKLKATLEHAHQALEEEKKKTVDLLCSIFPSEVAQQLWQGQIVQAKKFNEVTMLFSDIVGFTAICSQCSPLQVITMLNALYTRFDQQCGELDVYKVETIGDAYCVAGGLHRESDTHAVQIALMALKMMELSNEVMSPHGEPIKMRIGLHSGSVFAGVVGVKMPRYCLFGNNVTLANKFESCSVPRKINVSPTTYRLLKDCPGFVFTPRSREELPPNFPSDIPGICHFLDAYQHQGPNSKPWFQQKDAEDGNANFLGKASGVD
Description: B-2. Stimulation of sGC Enzyme Activity
Soluble guanylate cyclase (sGC) converts on stimulation GTP into cGMP and pyrophosphate (PPi). PPi is detected with the aid of the assay described below. The signal produced in the assay increases as the reaction progresses and serves as a measure of the sGC enzyme activity under the given stimulation.
To carry out the assay, 29 μl of enzyme solution[0-10 nM soluble guanylate cyclase (prepared according to Honicka et al., J. Mol. Med. 77, 14-23 (1999)) in 50 mM TEA, 2 mM MgCl2, 0.1% BSA (fraction V), 0.005% Brij®, pH 7.5] are initially introduced into a microplate, and 1 μl of the substance to be tested (as a serially diluted solution in DMSO) is added. The mixture is incubated at room temperature for 10 min. Then 20 μl of detection mix [1.2 nM Firefly Luciferase (Photinus pyralis luciferase, Promega), 29 μM dehydroluciferin (prepared according to Bitler & McElroy, Arch. Biochem. Biophys. 72, 358 (1957)), 122 μM luciferin (Promega), 153 μM ATP (Sigma) and 0.4 mM DTT (Sigma) in 50 mM TEA, 2 mM MgCl2, 0.1% BSA (fraction V), 0.005% Brij®, pH 7.5] are added. The enzyme reaction is started by adding 20 μl of substrate solution[1.25 mM guanosine 5′-triphosphate (Sigma) in 50 mM TEA, 2 mM MgCl2, 0.1% BSA (fraction V), 0.005% Brij®, pH 7.5] and measured continuously in a luminometer. The extent of the stimulation by the substance to be tested can be determined relative to the signal of the unstimulated reaction.
The activation of haem-free guanylate cyclase is examined by addition of 25 μM of 1H-1,2,4-oxadiazolo[4,3-a]quinoxalin-1-one (ODQ) to the enzyme solution and subsequent incubation for 30 minutes and compared to the stimulation of the native enzyme.

[3] = system: rabbit arteria saphena rings; assay: Vasorelaxant effect in vitro (arteria saphena rings, phenylephrin contraction); parameters: species or system Rabbits; details: concentration reducing phenylephrin-induced contraction by 50%
Description: B-3. Vasorelaxant Effect In Vitro
Rabbits are anaesthetized by intravenous injection of thiopental sodium […] (about 50 mg/kg) and exsanguinated. The arteria saphena is removed and divided into 3 mm wide rings. The rings are individually mounted on in each case one triangular pair of hooks, open at the end, made of 0.3 mm strong special wire (Remanium®). Under pretension, each ring is transferred into 5 ml organ baths containing carbogen-gassed Krebs-Henseleit solution of a temperature of 37° C. having the following composition: NaCl 119 mM; KCl 4.8 mM; CaCl2×2 H2O 1 mM; MgSO4×7 H2O 1.4 mM; KH2PO4 1.2 mM; NaHCO3 25 mM; glucose 10 mM; bovine serum albumin 0.001%. The contractile force is determined with Statham UC2 cells, amplified and digitalized using A/D transducers (DAS-1802 HC, Keithley Instruments Munich), and recorded in parallel on linear recorders. Contractions are induced by addition of phenylephrin.
After several (in general 4) control cycles, the substance to be investigated is added in each further passage in increasing dosage, and the height of the contraction achieved under the influence of the test substance is compared with the height of the contraction achieved in the last preliminary passage. From this, the concentration which is necessary in order to reduce the contraction achieved in the preliminary control by 50% (IC50) is calculated. The standard administration volume is 5 μl. The proportion of DMSO in the bath solution corresponds to 0.1%.

MEC (minimum effective concentration), activating action at the sGC enzyme in vitro [2] | EC50 [2] | IC50 ([3]; Oryctolagus cuniculus) | IC50 [3] | SMILES | MEC (minimum effective concentration), sGC-activating activity in the CHO reporter cell in vitro [1]
0.34 nM | 3 nM | 6 nM |  | CC(C)(C)c1ccc(COc2ccccc2CCN(CCCCC(=O)O)C2CCCc3cc(C(=O)O)ccc32)cc1 (racemic) [Example 1, rac-5-[(2-{2[(4-tert-Butylbenzyl)oxy]phenyl}ethyl)(4-carboxybutyl)amino]-5,6,7,8-tetrahydronaphthalene-2-carboxylic acid] | 0.3 nM
0.11 nM | 2.5 nM |  | 3.8 nM | CC(C)(C)c1ccc(COc2ccccc2CCN(CCCCC(=O)O)C2CCCc3cc(C(=O)O)ccc32)cc1 (single isomer, unassigned; enantiomer 1) [Example 2, 5-[(2-{2-[(4-tert-Butylbenzyl)oxy]phenyl}ethyl)(4-carboxybutyl)amino]-5,6,7,8-tetrahydronaphthalene-2-carboxylic acid (enantiomer 1)] | 0.2 nM
5 nM | 43 nM |  | 58 nM | CC(C)(C)c1ccc(COc2ccccc2CCN(CCCCC(=O)O)C2CCCc3cc(C(=O)O)ccc32)cc1 (single isomer, unassigned; enantiomer 2) [Example 3, 5-[(2-{2-[(4-tert-Butylbenzyl)oxy]phenyl}ethyl)(4-carboxybutyl)amino]-5,6,7,8-tetrahydronaphthalene-2-carboxylic acid (enantiomer 2)] | 0.65 nM
0.21 nM | 4.5 nM | 31 nM |  | CC(C)(C)c1ccc(COc2ccccc2CCN(CCCCC(=O)O)C2CCc3cc(C(=O)O)ccc32)cc1 (stereo not drawn) [Example 4] | 3.0 nM
0.32 nM | 7.2 nM |  |  | O=C(O)CCCCN(CCc1ccccc1OCc1ccc(CCc2ccccc2)cc1)C1CCCc2cc(C(=O)O)ccc21 (stereo not drawn) [Example 8] | 0.3 nM
270 nM |  |  |  | N#Cc1cccc(COc2ccccc2CCN(CCCCC(=O)O)C2CCCc3cc(C(=O)O)ccc32)c1 (stereo not drawn) [Example 10] | 1000 nM
610 nM |  |  |  | Cc1cc(COc2ccccc2CCN(CCCCC(=O)O)C2CCCc3cc(C(=O)O)ccc32)n(C)n1 (stereo not drawn) [Example 11] | 
55 nM |  |  |  | CC1CCC(=O)N1CCCCOc1ccccc1CCN(CCCCC(=O)O)C1CCCc2cc(C(=O)O)ccc21 (stereo not drawn) [Example 13] | 
600 nM |  |  |  | O=C(O)CCCCN(CCc1ccccc1OCCCCN1CCCC1=O)C1CCCc2cc(C(=O)O)ccc21 (stereo not drawn) [Example 16] | 

From patent US9387203B2, “Substituted aminoindane- and aminotetralinecarboxylic acids and the use thereof” (BAYER PHARMA AKTIENGESELLSCHAFT, priority 2012, dated 2016)
